Assay results as given in ChEMBL document CHEMBL5096151, “Phytocannabinoid Pharmacology: Medicinal Properties of Cannabis sativa Constituents Aside from the "Big Two"” (J Nat Prod, 2021).
≈ marks a conversion by molar mass, not a printed value.

Key:
Cannabinoid receptor 1 [1] = molecular target: T1, Cannabinoid receptor 1 (Homo sapiens, UniProt P21554); experiment: Binding affinity to CB1 (unknown origin) receptor assessed as inhibition constant
Cannabinoid receptor 2 [2] = molecular target: T2, Cannabinoid receptor 2 (Homo sapiens, UniProt P34972); experiment: Binding affinity to human CB2 receptor assessed as inhibition constant
T2 sequence (P34972 whole entry): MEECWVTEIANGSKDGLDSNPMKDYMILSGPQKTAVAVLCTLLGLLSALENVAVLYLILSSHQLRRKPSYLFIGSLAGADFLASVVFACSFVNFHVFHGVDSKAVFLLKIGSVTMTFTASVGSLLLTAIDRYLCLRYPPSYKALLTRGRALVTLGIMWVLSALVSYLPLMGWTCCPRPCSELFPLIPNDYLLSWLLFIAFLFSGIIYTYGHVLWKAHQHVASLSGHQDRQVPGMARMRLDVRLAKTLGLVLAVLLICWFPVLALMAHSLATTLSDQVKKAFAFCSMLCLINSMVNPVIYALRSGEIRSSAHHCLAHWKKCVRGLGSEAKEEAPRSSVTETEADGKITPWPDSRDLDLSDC

[3] = molecular target: T3, Transient receptor potential cation channel subfamily A member 1 (Homo sapiens, UniProt O75762); experiment: Agonist activity at TRPA1 (unknown origin) activation
T3 sequence (O75762 whole entry): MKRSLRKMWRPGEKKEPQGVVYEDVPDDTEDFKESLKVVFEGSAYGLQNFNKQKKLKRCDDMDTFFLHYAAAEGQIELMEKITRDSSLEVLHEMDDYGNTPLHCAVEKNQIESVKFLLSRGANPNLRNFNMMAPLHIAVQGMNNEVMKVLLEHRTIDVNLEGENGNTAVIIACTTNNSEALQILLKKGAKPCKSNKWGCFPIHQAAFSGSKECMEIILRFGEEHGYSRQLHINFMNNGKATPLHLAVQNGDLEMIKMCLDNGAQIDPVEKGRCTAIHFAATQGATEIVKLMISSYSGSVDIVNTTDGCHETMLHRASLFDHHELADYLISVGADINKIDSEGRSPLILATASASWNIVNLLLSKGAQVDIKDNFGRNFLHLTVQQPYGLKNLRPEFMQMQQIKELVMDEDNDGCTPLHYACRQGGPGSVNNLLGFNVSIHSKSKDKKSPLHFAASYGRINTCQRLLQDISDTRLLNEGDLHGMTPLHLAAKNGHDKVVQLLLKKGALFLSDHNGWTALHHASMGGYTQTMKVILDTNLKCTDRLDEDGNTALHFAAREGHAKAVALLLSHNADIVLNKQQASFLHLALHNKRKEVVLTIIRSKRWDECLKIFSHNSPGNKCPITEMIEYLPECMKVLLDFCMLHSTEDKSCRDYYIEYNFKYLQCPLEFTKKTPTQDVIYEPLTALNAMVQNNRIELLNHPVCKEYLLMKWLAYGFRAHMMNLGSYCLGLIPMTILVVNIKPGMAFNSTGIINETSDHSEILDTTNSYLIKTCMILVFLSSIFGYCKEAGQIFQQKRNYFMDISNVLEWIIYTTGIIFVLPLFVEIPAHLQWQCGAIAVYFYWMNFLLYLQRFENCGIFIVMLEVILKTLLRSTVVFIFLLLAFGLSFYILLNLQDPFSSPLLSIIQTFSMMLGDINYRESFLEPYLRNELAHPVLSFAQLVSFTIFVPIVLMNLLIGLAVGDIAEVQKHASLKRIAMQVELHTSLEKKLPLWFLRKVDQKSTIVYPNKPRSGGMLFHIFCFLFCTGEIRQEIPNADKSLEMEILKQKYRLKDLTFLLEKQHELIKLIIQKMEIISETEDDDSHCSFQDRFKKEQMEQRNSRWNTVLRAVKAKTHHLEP

Cannabinoid receptor 1 [4] = molecular target: T1, Cannabinoid receptor 1; experiment: Displacement of [3H]-WIN55212-2 from human CB1 receptor transfected in CHO cell membrane incubated for 90 mins by Liquid scintillation counter analysis; type: cell membranes
Escherichia coli = experiment: […] activity against Escherichia coli in presence of polymyxin; type: functional
[5] = molecular target: T4, Transient receptor potential cation channel subfamily V member 2 (Homo sapiens, UniProt Q9Y5S1); experiment: Agonist activity at ionomycin-stimulated TRPV2 (unknown origin) activation
T4 sequence (Q9Y5S1 whole entry): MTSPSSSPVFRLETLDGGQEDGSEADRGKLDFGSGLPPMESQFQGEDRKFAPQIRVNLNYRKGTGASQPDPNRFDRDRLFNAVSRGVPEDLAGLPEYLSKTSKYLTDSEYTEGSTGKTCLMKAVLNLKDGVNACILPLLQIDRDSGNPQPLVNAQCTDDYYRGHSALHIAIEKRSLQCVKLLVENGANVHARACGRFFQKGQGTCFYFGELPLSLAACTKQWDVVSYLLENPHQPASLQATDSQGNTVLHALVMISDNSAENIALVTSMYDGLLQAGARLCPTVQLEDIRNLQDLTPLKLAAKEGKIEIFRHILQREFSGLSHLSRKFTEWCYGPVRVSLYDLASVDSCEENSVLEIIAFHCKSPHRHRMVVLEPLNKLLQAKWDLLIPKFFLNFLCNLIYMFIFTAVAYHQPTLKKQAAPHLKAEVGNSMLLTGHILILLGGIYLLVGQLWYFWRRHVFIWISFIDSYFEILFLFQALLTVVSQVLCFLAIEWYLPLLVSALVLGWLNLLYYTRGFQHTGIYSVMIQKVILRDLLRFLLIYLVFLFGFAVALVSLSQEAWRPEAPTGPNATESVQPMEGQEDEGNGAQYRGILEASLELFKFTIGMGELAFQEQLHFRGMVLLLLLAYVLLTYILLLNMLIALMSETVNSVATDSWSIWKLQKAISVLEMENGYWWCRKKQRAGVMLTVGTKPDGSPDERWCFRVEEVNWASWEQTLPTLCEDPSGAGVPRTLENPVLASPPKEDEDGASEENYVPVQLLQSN

[6] = Agonist activity at CB2 receptor in albino MF1 mouse vas deferens assessed as inhibition of electrically evoked vas deferens contraction by incubated for 13 mins followed by electrical stimulation for 2 mins
[7] = molecular target: Alpha-2A adrenergic receptor (Homo sapiens) (UniProt P08913); experiment: Displacement of [35S]GTPgammaS from human alpha2-adreno receptor receptor expressed in CHO cells; type: cell-based
Alpha-2A adrenergic receptor (Homo sapiens), sequence (P08913 whole entry): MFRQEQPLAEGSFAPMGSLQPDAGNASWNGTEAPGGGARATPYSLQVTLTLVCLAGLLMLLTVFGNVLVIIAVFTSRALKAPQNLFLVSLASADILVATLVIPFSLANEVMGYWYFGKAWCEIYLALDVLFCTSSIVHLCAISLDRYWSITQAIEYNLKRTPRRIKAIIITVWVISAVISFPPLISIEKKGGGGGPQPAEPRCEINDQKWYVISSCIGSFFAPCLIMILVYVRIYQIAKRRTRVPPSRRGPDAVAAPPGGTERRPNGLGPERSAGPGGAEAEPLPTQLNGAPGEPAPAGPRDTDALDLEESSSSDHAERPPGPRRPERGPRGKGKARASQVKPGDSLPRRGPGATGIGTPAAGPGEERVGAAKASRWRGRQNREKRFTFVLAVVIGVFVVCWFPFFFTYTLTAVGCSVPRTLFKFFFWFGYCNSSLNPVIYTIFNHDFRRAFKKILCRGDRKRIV

Cannabinoid receptor 1 [8] = molecular target: Cannabinoid receptor 1 (Rattus norvegicus, UniProt P20272); experiment: Displacement of [35S]GTPgammaS from CB1 receptor in rat brain; type: tissue-based
Cannabinoid receptor 1 [9] = molecular target: T1, Cannabinoid receptor 1; experiment: Displacement of [35S]GTPgammaS from human CB1 receptor expressed in CHO cells; type: cell-based
Staphylococcus aureus [10] = experiment: Antibacterial activity against methicillin-resistant Staphylococcus aureus USA300 infected in mouse assessed as log10 reduction in bacterial load in spleen at 100 mg/kg ,ip measured for 30 mins; type: functional; conditions: 0.5 h
[11] = molecular target: T5, Transient receptor potential cation channel subfamily V member 2 (Homo sapiens) (UniProt Q9Y5S1); experiment: Agonist activity at ionomycin-stimulated TRPV2 (unknown origin) activation assessed as efficacy relative to control; conditions: filed as agonist
T5 sequence (whole entry): T4 sequence (Q9Y5S1 whole entry)

[12] = molecular target: Cannabinoid receptor 1 (Mus musculus) (UniProt P47746); experiment: Agonist activity at CB1 receptor in albino MF1 mouse vas deferens assessed as inhibition of electrically evoked vas deferens contraction by incubated for 13 mins followed by electrical stimulation for 2 mins; type: functional; conditions: filed as antagonist, time 15.0 min
Staphylococcus aureus [13] = experiment: Antibiofilm activity against methicillin-resistant Staphylococcus aureus USA300 incubated for 24 hrs by crystal violet staining based assay; type: functional
[14] = molecular target: T6, Transient receptor potential cation channel subfamily V member 4 (Homo sapiens, UniProt Q9HBA0); experiment: Agonist activity at ionomycin-stimulated TRPV4 (unknown origin) activation
T6 sequence (Q9HBA0 whole entry): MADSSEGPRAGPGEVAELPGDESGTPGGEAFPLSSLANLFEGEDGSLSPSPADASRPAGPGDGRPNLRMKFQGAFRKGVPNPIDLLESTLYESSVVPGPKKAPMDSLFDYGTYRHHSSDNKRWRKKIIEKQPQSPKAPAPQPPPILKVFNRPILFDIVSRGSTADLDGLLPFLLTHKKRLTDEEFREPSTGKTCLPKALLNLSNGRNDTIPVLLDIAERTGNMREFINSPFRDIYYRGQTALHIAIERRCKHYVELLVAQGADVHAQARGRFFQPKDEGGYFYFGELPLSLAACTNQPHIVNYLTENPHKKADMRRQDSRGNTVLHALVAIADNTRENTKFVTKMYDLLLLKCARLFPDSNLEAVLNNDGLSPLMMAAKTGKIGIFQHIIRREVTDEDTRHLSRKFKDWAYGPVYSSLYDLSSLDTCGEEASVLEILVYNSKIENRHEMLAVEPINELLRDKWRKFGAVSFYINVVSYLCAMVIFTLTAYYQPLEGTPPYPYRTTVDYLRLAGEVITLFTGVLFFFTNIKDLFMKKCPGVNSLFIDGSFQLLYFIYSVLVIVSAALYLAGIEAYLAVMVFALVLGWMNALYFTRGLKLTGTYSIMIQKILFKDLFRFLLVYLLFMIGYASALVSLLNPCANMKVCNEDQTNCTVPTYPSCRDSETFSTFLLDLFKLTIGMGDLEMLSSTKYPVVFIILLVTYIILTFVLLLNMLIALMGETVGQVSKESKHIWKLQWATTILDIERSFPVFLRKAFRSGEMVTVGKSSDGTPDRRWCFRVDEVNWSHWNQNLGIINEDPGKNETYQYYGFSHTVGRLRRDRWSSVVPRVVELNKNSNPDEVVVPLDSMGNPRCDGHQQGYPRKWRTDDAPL

[15] = molecular target: T7, Transient receptor potential cation channel subfamily V member 3 (Homo sapiens, UniProt Q8NET8); experiment: Agonist activity at ionomycin-stimulated TRPV3 (unknown origin) activation
T7 sequence (Q8NET8 whole entry): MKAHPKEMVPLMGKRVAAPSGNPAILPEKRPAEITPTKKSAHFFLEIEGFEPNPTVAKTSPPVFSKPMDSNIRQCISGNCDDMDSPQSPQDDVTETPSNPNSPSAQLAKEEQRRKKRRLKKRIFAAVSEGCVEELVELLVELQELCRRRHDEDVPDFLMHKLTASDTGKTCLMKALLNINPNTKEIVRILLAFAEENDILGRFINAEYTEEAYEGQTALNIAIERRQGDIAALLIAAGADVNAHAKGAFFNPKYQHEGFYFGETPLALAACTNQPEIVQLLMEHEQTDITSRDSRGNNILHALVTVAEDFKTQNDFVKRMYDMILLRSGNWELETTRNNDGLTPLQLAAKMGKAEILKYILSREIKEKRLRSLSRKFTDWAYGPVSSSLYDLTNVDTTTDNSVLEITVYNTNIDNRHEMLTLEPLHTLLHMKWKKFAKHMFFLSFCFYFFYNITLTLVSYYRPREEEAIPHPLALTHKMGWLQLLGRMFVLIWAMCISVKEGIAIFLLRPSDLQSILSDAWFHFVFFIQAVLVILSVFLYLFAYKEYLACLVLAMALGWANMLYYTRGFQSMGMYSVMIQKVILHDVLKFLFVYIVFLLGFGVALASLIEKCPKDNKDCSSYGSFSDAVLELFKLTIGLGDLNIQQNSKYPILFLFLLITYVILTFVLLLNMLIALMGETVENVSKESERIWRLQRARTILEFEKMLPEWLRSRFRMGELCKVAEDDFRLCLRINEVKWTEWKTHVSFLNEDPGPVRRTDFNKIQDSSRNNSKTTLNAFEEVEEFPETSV

[16] = molecular target: T6, Transient receptor potential cation channel subfamily V member 4; experiment: Agonist activity at ionomycin-stimulated TRPV4 (unknown origin) channel desensitization in presence of 4alphaPDD
Staphylococcus aureus [17] = experiment: Antibiofilm activity against methicillin-resistant Staphylococcus aureus USA300 incubated for 24 hrs by CLSI based assay; type: functional
[18] = molecular target: T6, Transient receptor potential cation channel subfamily V member 4; experiment: Agonist activity at ionomycin-stimulated TRPV4 (unknown origin) activation assessed as efficacy relative to control
[19] = molecular target: T4, Transient receptor potential cation channel subfamily V member 2; experiment: Agonist activity at ionomycin-stimulated TRPV2 (unknown origin) channel desensitization in presence of lysophosphatidylcholine
[20] = molecular target: T3, Transient receptor potential cation channel subfamily A member 1; experiment: Agonist activity at TRPA1 (unknown origin) channel desensitization in presence of isothiocyanate
[21] = molecular target: T8, Transient receptor potential cation channel subfamily V member 3 (Homo sapiens) (UniProt Q8NET8); experiment: Agonist activity at ionomycin-stimulated TRPV3 (unknown origin) activation assessed as efficacy relative to control
T8 sequence (whole entry): T7 sequence (Q8NET8 whole entry)

[22] = molecular target: T7, Transient receptor potential cation channel subfamily V member 3; experiment: Agonist activity at ionomycin-stimulated TRPV3 (unknown origin) channel desensitization in presence of carvacrol
[23] = molecular target: T9, Transient receptor potential cation channel subfamily V member 1 (Homo sapiens, UniProt Q8NER1); experiment: Agonist activity at ionomycin-stimulated TRPV1 (unknown origin) activation assessed as efficacy relative to control
T9 sequence (Q8NER1 whole entry): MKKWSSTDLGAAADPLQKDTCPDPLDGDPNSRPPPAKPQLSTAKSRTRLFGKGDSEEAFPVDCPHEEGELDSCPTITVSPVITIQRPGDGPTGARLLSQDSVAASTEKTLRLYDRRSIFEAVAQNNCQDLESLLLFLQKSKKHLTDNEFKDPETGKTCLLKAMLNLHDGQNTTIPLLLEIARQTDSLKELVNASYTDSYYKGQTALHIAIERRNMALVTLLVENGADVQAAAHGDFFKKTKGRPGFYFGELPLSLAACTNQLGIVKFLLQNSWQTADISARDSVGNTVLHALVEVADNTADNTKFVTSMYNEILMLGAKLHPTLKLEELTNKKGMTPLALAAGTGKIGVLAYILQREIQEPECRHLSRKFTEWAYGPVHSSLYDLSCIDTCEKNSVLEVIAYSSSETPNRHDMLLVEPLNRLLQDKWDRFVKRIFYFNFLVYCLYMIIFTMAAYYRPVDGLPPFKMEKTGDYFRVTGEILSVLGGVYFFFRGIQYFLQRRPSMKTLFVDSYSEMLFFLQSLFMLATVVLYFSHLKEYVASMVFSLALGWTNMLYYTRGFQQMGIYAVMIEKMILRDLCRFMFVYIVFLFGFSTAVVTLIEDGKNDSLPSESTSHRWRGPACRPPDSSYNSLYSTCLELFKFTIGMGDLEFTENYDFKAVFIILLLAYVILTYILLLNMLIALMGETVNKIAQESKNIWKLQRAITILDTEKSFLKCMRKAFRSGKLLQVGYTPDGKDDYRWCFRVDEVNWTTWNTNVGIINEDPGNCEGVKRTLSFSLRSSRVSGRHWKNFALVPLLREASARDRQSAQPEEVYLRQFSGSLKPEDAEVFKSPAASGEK

[24] = molecular target: T3, Transient receptor potential cation channel subfamily A member 1; experiment: Agonist activity at TRPA1 (unknown origin) activation assessed as efficacy relative to control; conditions: filed as agonist
Cytochrome P450 2B6 [25] = molecular target: T10, Cytochrome P450 2B6 (Homo sapiens, UniProt P20813); experiment: Mixed inhibition of recombinant human CYP2B6 using coumarin as substrate preincubated with NADPH for 20 mins and measured after 30 min by Lineweaver-burk plots analysis; type: ADME
T10 sequence (P20813 whole entry): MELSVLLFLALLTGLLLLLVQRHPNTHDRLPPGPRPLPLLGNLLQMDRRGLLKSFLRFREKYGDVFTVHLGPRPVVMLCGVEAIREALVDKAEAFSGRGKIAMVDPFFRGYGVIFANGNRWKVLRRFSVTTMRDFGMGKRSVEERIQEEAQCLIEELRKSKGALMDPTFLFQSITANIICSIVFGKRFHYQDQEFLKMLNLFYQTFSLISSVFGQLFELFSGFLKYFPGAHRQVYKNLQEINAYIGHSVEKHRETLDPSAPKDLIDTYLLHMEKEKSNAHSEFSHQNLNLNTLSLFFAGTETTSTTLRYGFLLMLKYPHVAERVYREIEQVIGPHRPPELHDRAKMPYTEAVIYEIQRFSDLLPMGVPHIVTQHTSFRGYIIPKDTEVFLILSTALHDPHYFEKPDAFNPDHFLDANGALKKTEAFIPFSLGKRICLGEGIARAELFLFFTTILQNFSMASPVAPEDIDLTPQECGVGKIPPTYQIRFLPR

Cannabinoid receptor 1 [26] = molecular target: T1, Cannabinoid receptor 1; experiment: Binding affinity to CB1 (unknown origin) expressed in CHO -k1 cells assessed as inhibition constant; type: cell-based
Cannabinoid receptor 2 [27] = molecular target: T2, Cannabinoid receptor 2; experiment: Binding affinity to CB2 receptor (unknown origin) expressed in AtT20 cells assessed as inhibition constant; type: cell-based
Cytochrome P450 2B6 [28] = molecular target: T10, Cytochrome P450 2B6; experiment: Inhibition of recombinant human CYP2B6 using coumarin as substrate preincubated with NADPH for 20 mins and measured after 30 min by Lineweaver-burk plots analysis; type: ADME
Cytochrome P450 2J2 = Cytochrome P450 2J2 (Homo sapiens, UniProt P51589); experiment: Non competitive inhibition of CYP2J2 (unknown origin) in presence of NADPH by LC-MS/MS analysis; type: ADME
[29] = molecular target: T3, Transient receptor potential cation channel subfamily A member 1; experiment: Agonist activity at TRPA1 (unknown origin) channel desensitization in presence of icilin
Staphylococcus aureus [30] = experiment: Antibacterial activity against methicillin-resistant Staphylococcus aureus; type: functional
Cytochrome P450 2A6 [31] = molecular target: T11, Cytochrome P450 2A6 (Homo sapiens, UniProt P11509); experiment: Non competitive inhibition of recombinant human CYP2A6 using coumarin as substrate preincubated with NADPH for 20 mins and measured after 30 min; type: ADME
T11 sequence (P11509 whole entry): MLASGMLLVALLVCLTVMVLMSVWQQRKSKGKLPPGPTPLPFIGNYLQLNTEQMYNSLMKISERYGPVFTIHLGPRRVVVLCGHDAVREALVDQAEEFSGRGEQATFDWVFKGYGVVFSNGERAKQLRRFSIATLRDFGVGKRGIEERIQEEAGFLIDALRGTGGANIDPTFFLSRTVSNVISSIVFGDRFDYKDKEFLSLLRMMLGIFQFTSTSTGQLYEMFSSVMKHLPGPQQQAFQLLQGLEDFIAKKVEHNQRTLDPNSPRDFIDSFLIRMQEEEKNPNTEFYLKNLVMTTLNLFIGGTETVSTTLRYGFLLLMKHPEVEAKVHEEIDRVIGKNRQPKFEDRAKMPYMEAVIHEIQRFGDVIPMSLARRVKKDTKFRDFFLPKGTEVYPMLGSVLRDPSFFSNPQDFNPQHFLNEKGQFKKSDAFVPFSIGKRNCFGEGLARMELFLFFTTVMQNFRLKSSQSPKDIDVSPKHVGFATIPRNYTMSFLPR

[32] = molecular target: T9, Transient receptor potential cation channel subfamily V member 1; experiment: Agonist activity at ionomycin-stimulated TRPV1 (unknown origin) channel desensitization in presence of capsaicin
Cannabinoid receptor 1 [33] = molecular target: T1, Cannabinoid receptor 1; experiment: Binding affinity to CB1 (unknown origin) assessed as inhibition constant
Cytochrome P450 2A6 [34] = molecular target: T11, Cytochrome P450 2A6; experiment: Non competitive inhibition of recombinant human CYP2A6 using coumarin as substrate preincubated with NADPH for 20 mins and measured after 30 min by Lineweaver-burk plots analysis; type: ADME
Cannabinoid receptor 2 [35] = molecular target: T2, Cannabinoid receptor 2; experiment: Binding affinity to CB2 receptor (unknown origin) expressed in CHO -k1 cells assessed as inhibition constant; type: cell-based
HT-22 = experiment: Neuroprotection against glutamate-induced oxytosis in mouse HT-22 cells assessed as cell viability; type: functional, cell-based

T1 sequence (P21554 whole entry): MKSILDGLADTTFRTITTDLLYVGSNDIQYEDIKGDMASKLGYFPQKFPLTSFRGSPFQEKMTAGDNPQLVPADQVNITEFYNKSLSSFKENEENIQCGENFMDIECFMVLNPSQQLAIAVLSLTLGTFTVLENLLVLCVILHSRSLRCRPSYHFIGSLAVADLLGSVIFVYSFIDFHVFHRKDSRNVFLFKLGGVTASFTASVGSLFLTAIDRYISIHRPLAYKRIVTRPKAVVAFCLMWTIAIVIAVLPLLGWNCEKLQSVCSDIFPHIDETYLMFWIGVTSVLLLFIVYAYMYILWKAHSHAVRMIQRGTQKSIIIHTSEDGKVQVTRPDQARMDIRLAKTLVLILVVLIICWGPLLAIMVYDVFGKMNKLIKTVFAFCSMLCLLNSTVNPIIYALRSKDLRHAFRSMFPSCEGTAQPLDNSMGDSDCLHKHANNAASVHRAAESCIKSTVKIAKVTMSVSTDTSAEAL

CCCCCCCc1cc(O)c2c(c1)OC(C)(C)[C@@H]1CCC(C)=C[C@@H]21
Ki (Cannabinoid receptor 1 [1]): 0.13 µM
Ki (Cannabinoid receptor 2 [2]): 0.0069 µM

CCCCCc1cc(O)c(C/C=C(\C)CCC=C(C)C)c(O)c1 [CANNABIGEROL]
EC50 [3]: 0.7 µM
K (Cannabinoid receptor 1 [4]): 1.04 µM
MIC (Escherichia coli): 4 µg/mL
EC50 [5]: 1.7 µM
Ki [6]: 1.1 µM
EC5 [7]: 0.002 µM
Ki (Cannabinoid receptor 1 [8]): 0.44 µM
Ki (Cannabinoid receptor 1 [9]): 2.6 µM
log(activity) (Staphylococcus aureus [10]): 2.8
Efficacy [11]: 74%
K [12]: 0.38 µM
MIC (Staphylococcus aureus [13]): 0.5 µg/mL (≈ 1.58 µM)
MIC90 (Staphylococcus aureus [13]): 4 µg/mL (≈ 12.6 µM)
EC50 [14]: 5.1 µM
EC50 [15]: 1 µM
IC50 [16]: 1.3 µM
MIC90 (Staphylococcus aureus [17]): 4 µg/mL (≈ 12.6 µM)
Efficacy [18]: 24%
IC50 [19]: 1.5 µM
IC50 [20]: 13 µM
Efficacy [21]: 18%
IC50 [22]: 66 µM
Efficacy [23]: 34%
Efficacy [24]: 100%

CCCCCc1cc(O)c2c(c1)OC(C)(C)c1ccc(C)cc1-2 [CANNABINOL]
EC50 [3]: 0.18 µM
EC50 [5]: 19 µM
Ki (Cytochrome P450 2B6 [25]): 39 µM
Ki (Cannabinoid receptor 1 [26]): 0.07 µM
Ki (Cannabinoid receptor 2 [27]): 0.3 µM
Ki (Cytochrome P450 2B6 [28]): 2.55 µM
Efficacy [11]: 74%
EC50 [14]: 16.1 µM
EC50 [15]: 5.3 µM
IC50 (Cytochrome P450 2J2): 19 µM
IC50 [29]: 0.21 µM
IC50 [16]: 5.4 µM
MIC (Staphylococcus aureus [30]): 1 µg/mL (≈ 3.22 µM)
IC50 (Cytochrome P450 2A6 [31]): 30.4 µM
Efficacy ([18]; filed as agonist): 60%
IC50 [32]: 82 µM
Ki (Cannabinoid receptor 1 [33]): 1.1 µM
IC50 [19]: 15.7 µM
IC50 [20]: 0.4 µM
Efficacy ([21]; filed as agonist): 72%
Ki (Cytochrome P450 2A6 [34]): 1 µM
Ki (Cannabinoid receptor 2 [35]): 0.07 µM
IC50 [22]: 9.4 µM
Efficacy [23]: < 10%
EC50 (HT-22): 0.61 µM
Efficacy [24]: 243%
